Results taken from PubChem BioAssay AID326 (DTP/NCI, 2004).
Several values for one entry are separate records, joined by “and”; a condition that tells them apart may be missing. Equal entries are not always repeated. Inconclusive results and toxic doses are left out.

Tested on: CD2F1 mice, P388/DHAQ leukemia ip, median survival T/C
Experiment: NCI In Vivo Anticancer Drug Screen. Data for tumor model P388 Leukemia resistant to Dihydroxy Anthracenedione; NSC 299195 (intraperitoneal) in CD2F1 (CDF1) mice
Settings: endpoint: median survival time, higher = longer survival
Experimental: The antitumor activity of compounds was measured in mice bearing transplantable tumors. Survival or tumor size were measured and the results are expressed as the measurement made in the treated group (T) divided by the measurement made in the vehicle treated control group (C). The tumor model used in this assay is P388 Leukemia resistant to Dihydroxy Anthracenedione; NSC 299195 (intraperitoneal) in CD2F1 (CDF1) mice

[1] = dose: 64.8 mg/kg/injection, schedule: Q04DX003 (ip), vehicle: saline
[2] = dose: 108.0 mg/kg/injection, schedule: Q04DX003 (ip), vehicle: saline

O=C1c2c(O)ccc(O)c2C(=O)c2c(NCCNCCO)ccc(NCCNCCO)c21
T/C (dose: 0.65 mg/kg/injection, schedule: Q04DX003 (ip), vehicle: saline): 112 % of control | T/C (dose: 0.78 mg/kg/injection, schedule: Q04DX003 (ip), vehicle: saline): 119 % of control and 111 % of control | T/C (dose: 1.08 mg/kg/injection, schedule: Q04DX003 (ip), vehicle: saline): 107 % of control | T/C (dose: 1.3 mg/kg/injection, schedule: Q04DX002 (ip), vehicle: water): 112 % of control and 114 % of control and 100 % of control | T/C (dose: 1.62 mg/kg/injection, schedule: Q04DX003 (ip), vehicle: saline): 104 % of control | T/C (dose: 2.16 mg/kg/injection, schedule: Q04DX002 (ip), vehicle: water): 103 % of control and 120 % of control | T/C (dose: 2.7 mg/kg/injection, schedule: Q04DX003 (ip), vehicle: saline): 119 % of control | T/C (dose: 3.6 mg/kg/injection, schedule: Q04DX002 (ip), vehicle: water): 104 % of control and 105 % of control and 97 % of control | T/C (dose: 4.0 mg/kg/injection, schedule: Q04DX002 (ip), vehicle: water): 100 % of control | T/C (dose: 4.5 mg/kg/injection, schedule: Q04DX003 (ip), vehicle: saline): 124 % of control | T/C (dose: 6.0 mg/kg/injection, schedule: Q04DX002 (ip), vehicle: water): 93 % of control and 96 % of control and 97 % of control | T/C (dose: 6.67 mg/kg/injection, schedule: Q04DX002 (ip), vehicle: water): 106 % of control | T/C (dose: 7.5 mg/kg/injection, schedule: Q04DX003 (ip), vehicle: saline): 120 % of control | T/C (dose: 10.0 mg/kg/injection, schedule: Q04DX002 (ip), vehicle: water): 87 % of control and 88 % of control | T/C (dose: 10.0 mg/kg/injection, schedule: Q04DX003 (ip), vehicle: saline): 109 % of control

CC[C@]1(O)C[C@H]2CN(CCc3c([nH]c4ccccc34)[C@@](C(=O)OC)(c3cc4c(cc3OC)N(C=O)[C@H]3[C@@](O)(C(=O)OC)[C@H](OC(C)=O)[C@]5(CC)C=CCN6CC[C@]43[C@@H]65)C2)C1
T/C (dose: 0.43 mg/kg/injection, schedule: Q04DX003 (ip), vehicle: saline): 160 % of control | T/C (dose: 0.72 mg/kg/injection, schedule: Q04DX003 (ip), vehicle: saline): 150 % of control and 158 % of control and 169 % of control | T/C (dose: 1.2 mg/kg/injection, schedule: Q04DX003 (ip), vehicle: saline): 161 % of control and 168 % of control and 172 % of control | T/C (dose: 2.0 mg/kg/injection, schedule: Q04DX003 (ip), vehicle: saline): 168 % of control and 169 % of control and 195 % of control

COC(=O)C[C@](O)(CCCC(C)(C)O)C(=O)O[C@@H]1C(OC)=C[C@]23CCCN2CCc2cc4c(cc2[C@H]13)OCO4
T/C (dose: 3.0 mg/kg/injection, schedule: Q04DX003 (ip), vehicle: saline): 116 % of control | T/C (dose: 3.33 mg/kg/injection, schedule: Q04DX003 (ip), vehicle: saline): 154 % of control

CN(Cc1cnc2nc(N)nc(N)c2n1)c1ccc(C(=O)N[C@@H](CCC(=O)O)C(=O)O)cc1
T/C (dose: 8.64 mg/kg/injection, schedule: Q04DX003 (ip), vehicle: sodium bicarbonate): 161 % of control and 192 % of control | T/C (dose: 14.4 mg/kg/injection, schedule: Q04DX003 (ip), vehicle: sodium bicarbonate): 168 % of control and 195 % of control | T/C (dose: 24.0 mg/kg/injection, schedule: Q04DX003 (ip), vehicle: sodium bicarbonate): 108 % of control and 214 % of control | T/C (dose: 40.0 mg/kg/injection, schedule: Q04DX003 (ip), vehicle: sodium bicarbonate): 92 % of control

O=C1c2ccccc2C(=O)c2c(NCCNCCO)ccc(O)c21
T/C (dose: 19.4 mg/kg/injection, schedule: Q04DX003 (ip), vehicle: saline): 121 % of control | T/C (dose: 32.4 mg/kg/injection, schedule: Q04DX003 (ip), vehicle: saline): 107 % of control | T/C (dose: 54.0 mg/kg/injection, schedule: Q04DX003 (ip), vehicle: saline): 90 % of control

CC(CN1CC(=O)NC(=O)C1)N1CC(=O)NC(=O)C1 (stereo not given)
T/C [1]: 101 % of control | T/C [2]: 104 % of control | T/C (dose: 180.0 mg/kg/injection, schedule: Q04DX003 (ip), vehicle: saline): 107 % of control | T/C (dose: 500.0 mg/kg/injection, schedule: Q04DX003 (ip), vehicle: saline): 123 % of control

COc1cccc2c1C(=O)c1c(O)c3c(c(O)c1C2=O)C[C@@](O)(C(=O)CO)C[C@@H]3OC1CC(N)C(O)C(C)O1 (stereo not given in full)
T/C (dose: 0.97 mg/kg/injection, schedule: Q04DX002 (ip), vehicle: saline): 118 % of control | T/C (dose: 1.3 mg/kg/injection, schedule: Q04DX002 (ip), vehicle: saline): 115 % of control and 120 % of control | T/C (dose: 2.16 mg/kg/injection, schedule: Q04DX002 (ip), vehicle: saline): 120 % of control | T/C (dose: 2.7 mg/kg/injection, schedule: Q04DX002 (ip), vehicle: saline): 119 % of control | T/C (dose: 3.6 mg/kg/injection, schedule: Q04DX002 (ip), vehicle: saline): 123 % of control | T/C (dose: 6.0 mg/kg/injection, schedule: Q04DX002 (ip), vehicle: saline): 121 % of control | T/C (dose: 10.0 mg/kg/injection, schedule: Q04DX002 (ip), vehicle: saline): 102 % of control and 120 % of control

CC[C@](O)(C(=O)O)c1cc2n(c(=O)c1CO)Cc1cc3ccccc3nc1-2
T/C (dose: 6.48 mg/kg/injection, schedule: Q04DX003 (ip), vehicle: saline): 102 % of control and 117 % of control and 121 % of control | T/C (dose: 7.78 mg/kg/injection, schedule: Q04DX003 (ip), vehicle: saline): 121 % of control | T/C (dose: 10.8 mg/kg/injection, schedule: Q04DX003 (ip), vehicle: saline): 115 % of control and 120 % of control | T/C (dose: 18.0 mg/kg/injection, schedule: Q04DX003 (ip), vehicle: saline): 115 % of control | T/C (dose: 30.0 mg/kg/injection, schedule: Q04DX003 (ip), vehicle: saline): 155 % of control | T/C (dose: 36.0 mg/kg/injection, schedule: Q04DX003 (ip), vehicle: saline): 164 % of control | T/C (dose: 50.0 mg/kg/injection, schedule: Q04DX003 (ip), vehicle: saline): 180 % of control

NCCCN=c1ccc2c3c1c(O)c1c(O)ccc(=O)c1c3[nH]n2CCNCCO
T/C (dose: 9.72 mg/kg/injection, schedule: Q04DX002 (ip), vehicle: water): 124 % of control | T/C (dose: 27.0 mg/kg/injection, schedule: Q04DX002 (ip), vehicle: water): 97 % of control | T/C (dose: 45.0 mg/kg/injection, schedule: Q04DX002 (ip), vehicle: water): 97 % of control

O=C(O)CCCc1ccc(N(CCCl)CCCl)cc1
T/C (dose: 2.59 mg/kg/injection, schedule: Q04DX002 (ip), vehicle: saline with Tween-80): 100 % of control | T/C (dose: 4.32 mg/kg/injection, schedule: Q04DX002 (ip), vehicle: saline with Tween-80): 101 % of control | T/C (dose: 7.2 mg/kg/injection, schedule: Q04DX002 (ip), vehicle: saline with Tween-80): 100 % of control | T/C (dose: 12.0 mg/kg/injection, schedule: Q04DX002 (ip), vehicle: saline with Tween-80): 100 % of control | T/C (dose: 20.0 mg/kg/injection, schedule: Q04DX002 (ip), vehicle: saline with Tween-80): 106 % of control

N[C@@H](Cc1ccc(N(CCCl)CCCl)cc1)C(=O)O
T/C (dose: 1.94 mg/kg/injection, schedule: Q04DX002 (ip), vehicle: saline): 114 % of control and 119 % of control and 120 % of control | T/C (dose: 1.94 mg/kg/injection, schedule: Q04DX003 (ip), vehicle: saline): 106 % of control | T/C (dose: 3.24 mg/kg/injection, schedule: Q04DX002 (ip), vehicle: saline): 117 % of control and 118 % of control | T/C (dose: 3.24 mg/kg/injection, schedule: Q04DX003 (ip), vehicle: saline): 117 % of control | T/C (dose: 9.0 mg/kg/injection, schedule: Q04DX002 (ip), vehicle: saline): 157 % of control and 160 % of control and 163 % of control | T/C (dose: 9.0 mg/kg/injection, schedule: Q04DX003 (ip), vehicle: saline): 157 % of control | T/C (dose: 15.0 mg/kg/injection, schedule: Q04DX002 (ip), vehicle: saline): 102 % of control and 118 % of control | T/C (dose: 15.0 mg/kg/injection, schedule: Q04DX003 (ip), vehicle: saline): 152 % of control and 156 % of control

O=P1(N(CCCl)CCCl)NCCCO1 (stereo not given)
T/C (dose: 32.4 mg/kg/injection, schedule: Q04DX002 (ip), vehicle: saline): 189 % of control | T/C (dose: 38.9 mg/kg/injection, schedule: Q04DX003 (ip), vehicle: saline): 224 % of control | T/C (dose: 43.2 mg/kg/injection, schedule: Q04DX002 (ip), vehicle: saline): 203 % of control | T/C (dose: 54.0 mg/kg/injection, schedule: Q04DX002 (ip), vehicle: saline): 255 % of control | T/C [1]: 353 % of control | T/C (dose: 72.0 mg/kg/injection, schedule: Q04DX002 (ip), vehicle: saline): 201 % of control | T/C (dose: 90.0 mg/kg/injection, schedule: Q04DX002 (ip), vehicle: saline): 336 % of control | T/C [2]: 463 % of control | T/C (dose: 120.0 mg/kg/injection, schedule: Q04DX002 (ip), vehicle: saline): 223 % of control | T/C (dose: 150.0 mg/kg/injection, schedule: Q04DX002 (ip), vehicle: saline): 200 % of control | T/C (dose: 200.0 mg/kg/injection, schedule: Q04DX002 (ip), vehicle: saline): 380 % of control

CC[C@@]1(O)C[C@H](OC2CC(N(C)C)C(OC3CC(O)C(OC4CCC(=O)C(C)O4)C(C)O3)C(C)O2)c2c(cc3c(c2O)C(=O)c2c(O)cccc2C3=O)[C@H]1C(=O)OC (stereo not given in full)
T/C (dose: 4.32 mg/kg/injection, schedule: Q04DX003 (ip), vehicle: saline): 120 % of control | T/C (dose: 12.0 mg/kg/injection, schedule: Q04DX003 (ip), vehicle: saline): 196 % of control
